Converted amounts (≈) assume the structure as drawn. Read-outs that look alike come from different tables or passages of the source. Blank lines part the entries; values can stand above or below the compound they belong to.
Assays:
T. b. brucei (TREU 667) [1] = settings: cited from earlier work
T. b. brucei (EATRO 110) = experiment: Acute (stage 1) HAT infection mouse model; assay type: in vivo, T. b. brucei; female Swiss Webster mice
Method: Therefore, 24 was examined in a stage 1 HAT mouse model.[14] Briefly, dosing was orally once daily for four days, starting 24 h postinfection, and parasitemia was assessed weekly via tail vein blood smears (see the Supporting Information). Excellent activity was observed (Table 4), with 24 providing complete cures (i.e. parasite free blood smears after >30 days) to all mice at doses as low as 5 mg/kg, similar to the control drug pentamidine (given i.p. at 2 mg/kg), whereas the vehicle only mice died on day 7. […] Here, oral dosing of 24 (at 12.5 to 50 mg/kg once daily for seven days from day 21 postinfection) led to significant increases in survival times in comparison to untreated controls (66–70 days vs 31 days; Table 5), although cure rates were inadequate (0–20%). […]
Mouse Model f or Acu te HAT Inf ection. Compound 24 was tested for in vivo effi cac y against acute HAT infection caused b y T. b. brucei (EATRO 110 strain) at the Haskins Laboratories, Pace Universit y. […] Infected animals or th ose showing si gns of infectionwer e euthanized.Untreated infected contr ol animals died after 5-7 days; mice remaining parasite free for more than 30 da ys beyond the end of the tr eatment period w er e con sidered cur ed. […]

Trypanosoma cruzi = experiment: T. cruzi growth inhibition (University of Antwerp); assay type: cell-based; settings: mean of 2 to 5 determinations
L929 mouse fibroblasts = experiment: Cytotoxicity toward L929 mouse fibroblasts (Scynexis); assay type: cell-based
[2] = Kinetic solubility in water or 0.1 M HCl (ACSRC); assay type: physicochemical; settings: read-out: aqueous solubility
[3] = system: human lung fibroblasts (MRC-5 cells); experiment: Cytotoxicity toward MRC-5 cells (University of Antwerp); assay type: cell-based
T. b. brucei (TREU 667) [4] = experiment: CNS (stage 2, chronic) HAT infection mouse model; assay type: in vivo, T. b. brucei; female Swiss Webster mice
Method: Therefore, 24 was examined in a stage 1 HAT mouse model.[14] Briefly, dosing was orally once daily for four days, starting 24 h postinfection, and parasitemia was assessed weekly via tail vein blood smears (see the Supporting Information). Excellent activity was observed (Table 4), with 24 providing complete cures (i.e. parasite free blood smears after >30 days) to all mice at doses as low as 5 mg/kg, similar to the control drug pentamidine (given i.p. at 2 mg/kg), whereas the vehicle only mice died on day 7. […]
Mouse Model for Chronic HAT Inf ection. Compound 24 was tested for in vi vo efficac y against chronic HAT infection caused b y T. b. brucei (TREU 667 strain) at the Haskin s Laboratories, Pace Universit y. […]
suspension formulation (0.8% CMC, 0.1% SDS in water) to groups of 8 or 10infected f emal e Swiss Webster mice, starting 21 d postinfection, according to a report ed method. 5 Animals remaining parasite free for more than 180 da ys beyond the end of the treatment period were […]

Leishmania infantum = experiment: L. infantum growth inhibition (University of Antwerp); assay type: cell-based; settings: mean of 2 to 5 determinations
[5] = Mouse liver microsomal stability; assay type: in vitro ADME; settings: CD-1 mouse liver microsomes
T. b. brucei 427 [6] = experiment: T. b. brucei growth inhibition (University of Antwerp); assay type: cell-based, Trypanosoma brucei brucei; settings: for IC50: T. b. brucei 427, mean of 2 to 5 determinations, read-out: IC50 T. b. bruc
T. b. brucei 427 [7] = experiment: T. b. brucei 427 growth inhibition (Scynexis); assay type: cell-based, Trypanosoma brucei brucei
[8] = Human liver microsomal stability; assay type: in vitro ADME; settings: pooled human liver microsomes
T. b. rhodesiense = T. b. rhodesiense growth inhibition (University of Antwerp); assay type: cell-based, Trypanosoma brucei rhodesiense; settings: for IC50: mean of 2 to 5 determinations, read-out: IC50 T. b. rhod
in vitro = settings: dog, MDCK-MDR1
[9] = 1.25 mg/kg orally once daily for 4 days
[10] = 2.5 mg/kg orally once daily for 4 days
[11] = 5 mg/kg orally once daily for 4 days
[12] = 12.5 mg/kg orally once daily for 4 days
[13] = 25 mg/kg orally once daily for 4 days
[14] = 50 mg/kg orally once daily for 4 days
[15] = 12.5 mg/kg orally once daily for 7 d from day 21 postinfection
[16] = 25 mg/kg orally once daily for 7 d from day 21 postinfection
[17] = 50 mg/kg orally once daily for 7 d from day 21 postinfection

Structure (SMILES): CC1(C)OB(O)c2cc(NC(=O)c3ccc(F)cc3C(F)(F)F)ccc21 [Compound 5]
cure rate (T. b. brucei (TREU 667) [1]; same CNS model, 25 mg/kg once daily for 7 days): 100%

Structure (SMILES): O=[N+]([O-])c1cn2c(n1)[S@+]([O-])C[C@@H](OCc1ccc(OC(F)(F)F)cc1)C2 [Compound 24]
Cured (T. b. brucei (EATRO 110); [9]): 0%
Cured/Total (T. b. brucei (EATRO 110); [9]): 0/4
Mean survival (T. b. brucei (EATRO 110); [9]): 7.5 days
Cured (T. b. brucei (EATRO 110); [10]): 25%
Cured/Total (T. b. brucei (EATRO 110); [10]): 1/4
Mean survival (T. b. brucei (EATRO 110); [10]): 13 days
Cured (T. b. brucei (EATRO 110); [11]): 100%
Cured/Total (T. b. brucei (EATRO 110); [11]): 4/4
Mean survival (T. b. brucei (EATRO 110); [11]): >30 days
Cured (T. b. brucei (EATRO 110); [12]): 100%
Cured/Total (T. b. brucei (EATRO 110); [12]): 5/5
Mean survival (T. b. brucei (EATRO 110); [12]): >30 days
Cured (T. b. brucei (EATRO 110); [13]): 100%
Cured/Total (T. b. brucei (EATRO 110); [13]): 5/5
Mean survival (T. b. brucei (EATRO 110); [13]): >30 days
Cured (T. b. brucei (EATRO 110); [14]): 100%
Cured/Total (T. b. brucei (EATRO 110); [14]): 5/5
Mean survival (T. b. brucei (EATRO 110); [14]): >30 days
lowest dose providing complete cures to all mice (T. b. brucei (EATRO 110); orally once daily for four days): 5 mg/kg
efficacy relative to results described for fexinidazole (4) (fold superior) (T. b. brucei (EATRO 110); stage 1 HAT mouse model): ~20 fold
IC50 (Trypanosoma cruzi; Trypanosoma cruzi): 1.4 µM
IC50 (L929 mouse fibroblasts): > 10 mg/L
solubility at 15 min ([2]; water): 0.106 mg/mL (≈ 271 µM)
IC50 ([3]; Homo sapiens, MRC5, cytotoxicity toward human lung fibroblasts): 50 µM
Cured (T. b. brucei (TREU 667) [4]; [15]): 0%
Cured/Total (T. b. brucei (TREU 667) [4]; [15]): 0/8
Mean relapse time (T. b. brucei (TREU 667) [4]; [15]): 45 days
Cured (T. b. brucei (TREU 667) [4]; [16]): 20%
Cured/Total (T. b. brucei (TREU 667) [4]; [16]): 2/10
Mean relapse time (T. b. brucei (TREU 667) [4]; [16]): 70 days
Cured (T. b. brucei (TREU 667) [4]; [17]): 0%
Cured/Total (T. b. brucei (TREU 667) [4]; [17]): 0/10
Mean relapse time (T. b. brucei (TREU 667) [4]; [17]): 66 days
cure rates (T. b. brucei (TREU 667) [4]; 12.5 to 50 mg/kg orally once daily for seven days from day 21): 0–20%
IC50 (Leishmania infantum; Leishmania infantum): 10 µM
remaining at 1 h [5]: 96%
IC50 (T. b. brucei 427 [6]; Trypanosoma brucei): 0.14 µM
Selectivity Index (T. b. brucei 427 [7]; L929 vs T. b. brucei): > 143
potency relative to (6R) enantiomer 26 (fold more potent) (T. b. brucei 427 [7]; T. b. brucei): more than 70 fold
potency relative to cis isomer 25 (fold more potent) (T. b. brucei 427 [7]; T. b. brucei): 40 fold
IC50 (T. b. brucei 427 [7]; Trypanosoma brucei, growth inhibition of T. b. brucei 427, mean ± SD): 0.07 ± 0.005 mg/L (≈ 0.179 µM)
remaining at 1 h [8]: 82%
IC50 (T. b. rhodesiense; Trypanosoma brucei, RHODESIENSE): 0.13 µM

Structure (SMILES): O=C(Nc1ccc2c(c1)B(O)OC2)c1ccc(F)cc1C(F)(F)F [SCYX-6759]
cure rate of the CNS infection (T. b. brucei (TREU 667) [1]; oral 50 mg/kg twice daily (b.i.d.)): 83%

IC50 (Trypanosoma cruzi): 0.067 µM
solubility at 15 min ([2]; 0.1 M HCl, pH 1): 1.26 mg/mL (≈ 2690 µM)
solubility at 15 min ([2]; water, pH 7): 0.0099 mg/mL (≈ 21.1 µM)
Papp A→B at 150 min, 2 µM (in vitro): 117 nm/s
Papp B→A at 150 min, 2 µM (in vitro): 182 nm/s
remaining at 1 h [5]: 72%
remaining at 1 h [8]: 78%
Structure (SMILES): O=[N+]([O-])c1cn2c(n1)[S+]([O-])CC(OCc1ccc(-c3ccc(OC(F)(F)F)cc3)cn1)C2 (stereo not drawn) [Compound 35, 2-Nitro-6-({5-[4-(trifluoromethoxy)phenyl]pyridin-2-yl}methoxy)-6,7-dihydro-5H-imidazo[2,1-b][1,3]thiazine 8-oxide]
selectivity index (MRC-5 IC50 / HAT IC50) [3]: > 500 times
selectivity index relative to 12 (fold better) [3]: 2.4 fold
IC50 ([3]; cytotoxicity toward human lung fibroblasts): 16 µM
IC50 (Leishmania infantum): 0.41 µM
potency against T. b. brucei relative to 12 (fold greater) (T. b. brucei 427 [6]): 9 fold
IC50 (T. b. brucei 427 [6]): 0.03 µM
potency against T. b. rhodesiense relative to 12 (fold higher) (T. b. rhodesiense): 11 fold
IC50 (T. b. rhodesiense): 0.023 µM
